Read-outs that look alike come from different tables or passages of the source.

Data on four molecules can be found in patent US11266707B2, “Nutraceuticals for the prevention, inhibition, and treatment of SARS-CoV-2 and associated COVID-19” (priority 2020, dated 2022).

The conditions of data set [1]: cited from earlier work.
Data set [2] relates to lipopolysaccharide-activated macrophages. The following applies: cited from earlier work.
Data set [3] has as its system macrophage foam cells. The note with it: pretreatment; cited from earlier work.
The conditions of data set [4]: 10 mg/kg intraperitoneally at 1 and 6 h after CL2P and every 12 h; 18 h; cited from earlier work.
For data set [5] the following is noted: 10 mg/kg intraperitoneally; 72 h after CL2P; cited from earlier work.
In data set [6] the test system is LPS-induced ARDS. The following applies: cited from earlier work.
For data set [7] the following is noted: 10 mg/kg intravenously then 10 mg/kg/h infusion; cited from earlier work.
For data set [8] the following is noted: cited from earlier work. This is another data set of the same source.
In data set [9] the test system is LPS-induced ARDS. The note with it: cited from earlier work. This is another data set of the same source.
Data set [10] deals with primary peritoneal macrophages. The following applies: cited from earlier work.
Data set [11] relates to LPS-challenged macrophages. The following applies: pre-incubated 6 h with 0 to 50 μM, then LPS 24 h; cited from earlier work.
The test system of data set [12] is NK cell. Briefly: Pterostilbene given as nanostilbene to cancer patients: NK cell activity and interferon gamma. The class given is in vivo, human. The following applies: administered in the form of nanostilbene in cancer patients.
The test system of data set [13] is interleukin-I, interleukin-6, interleukin-8, TNF-alpha. The note with it: cited from earlier work.
In data set [14] the test system is endothelium of atherosclerotic plaque. The note with it: apoE(−/−) mice, injection; cited from earlier work.
For data set [15] the following is noted: animal studies; cited from earlier work.
Data set [16] concerns human umbilical vein VECs (HUVECs). The following applies: cited from earlier work.
In data set [17] the test system is lipopolysaccharide-induced inflammatory reactions. The following applies: cited from earlier work.
The test system of data set [18] is sepsis induction with live Escherichia coli. The following applies: cited from earlier work; for concentration of IL-1a: controls 1187.0±278.64, P<0.05.
[19] abbreviates: lung, serum, and bronchoalveolar lavage fluid.
The mark [20] stands for this setting: 50 mg/kg, LPS 5 mg/kg 3 days later.

Epigallocatechin-3-Gallate [EGCG]: the colonic tissue erosion result in [1] (50 and 100 mg/kg/day) is “attenuation”. For the same molecule, in [1] (mouse, in vivo), the “HIF-1a and STAT3 protein expression in the colon” value is on record as “decreasing”; the “plasma levels of IL-10” value is “increasing”; the “plasma levels of TGF-1” value is “increasing”. In data set [1] (plasma), the “release of IL-6” value is “reduce” and the “release of IL-17” value is given as “reduce”. Further, in data set [2] (cells cotreated with EGCG and LPS), the NO production result is “Inhibition”. Further, the “disappearance of inhibitor kappaB from cytosolic fraction” value in [2] is “blocked”. Besides, the “activation of nuclear factor-kappaB” value in [2] (electrophoretic mobility shift assay) is recorded as “blocked”. Also, the “TNF-a-induced downregulation of ABCA1 and decrease in cholesterol efflux to apoA1” value in data set [3] is “attenuated”. Moreover, the “hypotension (mean arterial blood pressure)” value in data set [4] is “significantly improved”. The survival entry in [5] is on record as “significantly improved”. In addition, the “LPS-induced ARDS” value in data set [6] (10 mg/kg ip 1 h before LPS 10 mg/kg ip) is “attenuated”. In data set [6] (10 mg/kg ip), the “changes in blood gases” value is reported as “decreased”, the histological lesions entry is reported as “reduced” and the “myeloperoxidase (MPO) activity” value was “reduced”. For the same molecule, in data set [6] (lung tissue), the “expression of IKB-a” value was “increased”; the “expression of TLR-4, MyD88, TRIP, and p-p65” value was “alleviated”; the “expression of p65” value is on record as “no influence”. In data set [6] (setting [19]), the “expression of IL-6” value is listed as “significantly decreased”, the “expression of interleukin (IL)-1′” value is listed as “significantly decreased” and the “expression of tumor necrosis factor (TNF)-a” value is on record as “significantly decreased”. Moreover, in data set [7], the myeloperoxidase activity entry is on record as “reduced”, the myocardial damage result was “reduced”, the “plasma IL-6 levels” value is given as “decreased” and the “plasma creatine phosphokinase levels” value is “decreased”. Further, in [8] (first dose given 24 hours after cecal ligation and puncture), the lethal sepsis result was “rescued”. Also, the lethal endotoxemia result in data set [8] (intraperitoneal administration) is on record as “protected”. Moreover, the “systemic accumulation of HMGB1, IL-6 and KC” value in data set [8] (mouse, in vivo) was “attenuation”.

Take `C[S+]([O-])CCCCN=C=S` (stereo not shown) [sulforaphane, 1-isothiocyanato-4-(methylsulfinyl)-butane]: in [9] (50 mg/kg, ELISA), the “serum levels of interleukin-6 (IL-6)” value is “significantly decreased” and the “serum levels of tumor necrosis factor-a (TNF-a)” value is given as “significantly decreased”. In [9] (setting [20]), the “lactate dehydrogenase (LDH) activity” value is “significantly decreased” and the “wet-to-dry ratio of the lungs” value is given as “significantly decreased”. For the same molecule, in data set [9] (50 mg/kg), the “inducible nitric oxide synthase (iNOS) activity” value is “significantly inhibited” and the “prostaglandin E2 (PGE2) production” value was “significantly inhibited”. Besides, in [9] (pre-treatment), the “Nrf2/antioxidant response element (ARE) pathway” value is recorded as “activated”. In data set [9] (western blot), the “cyclooxygenase-2 (COX-2) protein expression” value is listed as “significantly inhibited” and the “matrix metalloproteinase-9 (MMP-9) protein expression” value is given as “significantly inhibited”. In data set [10] (LPS-stimulated Nrf2 (+/+) primary peritoneal macrophages), the HO-1 expression entry is on record as “significantly augmented”. Also, the “LPS-stimulated mRNA expression, protein expression and production of TNF-alpha, IL-1beta, COX-2 and iNOS” value in [10] (Nrf2 (+/+) primary peritoneal macrophages, pretreatment) is on record as “potently inhibited”. Besides, in data set [10] (Nrf2 (−/−) primary peritoneal macrophages), the anti-inflammatory effect entry was “attenuated”. Also, the “expression of NO and cytokines” value in data set [11] is “able to prevent”.

On to “trans-3,5-dimethoxy-4-hydroxystilbene [pterostilbene]”, for which, in data set [12], the NK cell activity result is on record as “increased” and the interferon gamma production result is listed as “increased”. The “inflammatory cytokines associated with ARDS (interleukin-I, interleukin-6, interleukin-8, TNF-alpha)” value in data set [13] was “inhibit inflammatory cytokines”. In addition, the “number of TUNEL-positive cells in the endothelium of atherosclerotic plaque” value in data set [14] is given as “strongly decreased”. Further, the bioavailability in data set [15] is reported as 80%. Moreover, in data set [16] (HUVECs, oxLDL 200 μg/ml), the “oxLDL-induced cell shrinkage, chromatin condensation, nuclear fragmentation, and cell apoptosis” value is on record as “protected against such injuries”. Further, the “expression of lectin-like oxLDL receptor-I (LOX-1)” value in data set [16] (in vitro and in vivo) is “inhibited”.

Regarding `CC1=CC(=O)C(C(C)C)=CC1=O` [thymoquinone], the lipopolysaccharide-induced inflammatory reactions entry in data set [17] was “suppressed effectively”. For the same molecule, in [17] (marker of inflammation), the “concentration of nitric oxide” value is “reduced significantly”. For the same molecule, the “concentration of IL-1a” value in data set [18] (0.75 mg/kg dose) was 310.8 ± 70.93 pg/mL. The IL-10 levels in [18] (0.75 mg/kg, controls 5505.2±333.96, P<0.01) is 2885.0 ± 553.98 pg/mL. The “concentration of IL-1a” value in data set [18] (1 mg/kg group) is 428.3 ± 71.32 pg/mL. Besides, the “levels of IL-2” value in data set [18] (P value 0.0851) is listed as “relatively lower”. For the same molecule, in data set [18] (P value 0.1817), the “levels of TNF-a” value is reported as “relatively lower”. Also, in data set [18] (mice, sepsis models), the reduced mortality was 80-90%; the “renal and hepatic biomarker profiles” value is on record as “improved”.
